Measured values from ChEMBL document CHEMBL1124481, “2-Haloaporphines as potent dopamine agonists” (J Med Chem, 1989).

Experiments:
[1] = tested on: D(2) dopamine receptor (Sus scrofa); assay: Proportion of high affinity state of Dopamine receptor D2 measured by compound ability to displace [3H]spiperone from porcine anterior pituitary membranes
[2] = tested on: D(2) dopamine receptor (Sus scrofa); assay: Compound was evaluated for the ability to displace [3H]-spiperone at Dopamine receptor D2 in porcine anterior pituitary gland as low affinity state

SMILES	D-2 [1]	D-2 [2]
CN1CCc2cc(Br)cc3c2[C@H]1Cc1ccc(O)c(O)c1-3	62%	49%
CN1CCc2cc(N)cc3c2[C@H]1Cc1ccc(O)c(O)c1-3	62%	38%
